Source: PubChem BioAssay AID2060604 (Molecular Pharmacology Branch, DTP, NCI, 2025)
“And” between values parts separate entries of the source, which are not always exact repeats. Equal values may be shown once.

Tested on: 379773-124-R-J2-PDC complex spheroids, viability % test/control
Assay: Anticancer human tumor 379773-124-R-J2-PDC patient-derived endometrial carcinoma cell line growth inhibition [CLK]
Conditions: for viability, T/C: stronger effect = lower value
Procedure, shortened: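 Multi-cell-type spheroids combined patient-derived tumor cells with HUVEC endothelial cells and human mesenchymal stem cells. Paired agents were dosed in half-log steps down from about clinical Cmax, or from 10 microM where Cmax was unknown.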
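Also: compound exposure lasted seven days before the viability readout.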
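For viability, T/C in this document: 100% = DMSO vehicle control wells.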

Compound `CCN1CCN(Cc2ccc(Nc3ncc(F)c(-c4cc(F)c5nc(C)n(C(C)C)c5c4)n3)nc2)CC1` + CN1CCN(c2cc(C(=O)Nc3cc4cc(-c5cnn(C)c5)ccc4cn3)ccn2)CC1 has an IC50 (curve of first compound, second compound 0.0316 µM) of over 1000 nM, an IC50 (curve of first compound, second compound 0.1 µM) of over 1000 nM and an IC50 (curve of first compound, second compound 0.316 µM) of under 3.16 nM. The IC50 (curve of first compound, second compound 1 µM) was under 3.16 nM, the IC50 (curve of first compound, second compound 3.16 µM) was under 3.16 nM and the IC50 (curve of first compound, second compound 10 µM) was under 3.16 nM. For the same compound, the viability, T/C (second compound 0.0316 µM, first compound 0.00316 µM) was 90.3%, the viability, T/C (second compound 0.0316 µM, first compound 0.01 µM) was 85.3% and the viability, T/C (second compound 0.0316 µM, first compound 0.0316 µM) was 82.2%. For the same compound, the viability, T/C (second compound 0.0316 µM, first compound 0.1 µM) was 98%, the viability, T/C (second compound 0.0316 µM, first compound 0.316 µM) was 86% and the viability, T/C (second compound 0.0316 µM, first compound 1 µM) was 79.6%. The viability, T/C (second compound 0.1 µM, first compound 0.00316 µM) was 101%, the viability, T/C (second compound 0.1 µM, first compound 0.01 µM) was 76.5% and the viability, T/C (second compound 0.1 µM, first compound 0.0316 µM) was 76.9%. For the same compound, the viability, T/C (second compound 0.1 µM, first compound 0.1 µM) was 80.7%, the viability, T/C (second compound 0.1 µM, first compound 0.316 µM) was 78.1% and the viability, T/C (second compound 0.1 µM, first compound 1 µM) was 72%. For the same compound, the viability, T/C (second compound 0.316 µM, first compound 0.00316 µM) was 32.4%, the viability, T/C (second compound 0.316 µM, first compound 0.01 µM) was 26% and the viability, T/C (second compound 0.316 µM, first compound 0.0316 µM) was 30.9%. For the same compound, the viability, T/C (second compound 0.316 µM, first compound 0.1 µM) was 30.3%, the viability, T/C (second compound 0.316 µM, first compound 0.316 µM) was 39.7% and the viability, T/C (second compound 0.316 µM, first compound 1 µM) was 32.5%. The viability, T/C (second compound 1 µM, first compound 0.00316 µM) was 0.18%, the viability, T/C (second compound 1 µM, first compound 0.01 µM) was 0.18% and the viability, T/C (second compound 1 µM, first compound 0.0316 µM) was 1.15%. It also gave a viability, T/C (second compound 1 µM, first compound 0.1 µM) of 0.3%, a viability, T/C (second compound 1 µM, first compound 0.316 µM) of 0.96% and a viability, T/C (second compound 1 µM, first compound 1 µM) of 2.04%. It also gave a viability, T/C (second compound 3.16 µM, first compound 0.00316 µM) of 0.11%, a viability, T/C (second compound 3.16 µM, first compound 0.01 µM) of 0.15% and a viability, T/C (second compound 3.16 µM, first compound 0.0316 µM) of 0.25%. The viability, T/C (second compound 3.16 µM, first compound 0.1 µM) was 0.83%, the viability, T/C (second compound 3.16 µM, first compound 0.316 µM) was 0.11% and the viability, T/C (second compound 3.16 µM, first compound 1 µM) was 0.44%. The viability, T/C (second compound 10 µM, first compound 0.00316 µM) was 1.88%, the viability, T/C (second compound 10 µM, first compound 0.01 µM) was 1.3% and the viability, T/C (second compound 10 µM, first compound 0.0316 µM) was 0.17%. For the same compound, the viability, T/C (second compound 10 µM, first compound 0.1 µM) was 1.36%, the viability, T/C (second compound 10 µM, first compound 0.316 µM) was 0.15% and the viability, T/C (second compound 10 µM, first compound 1 µM) was 0.16%.

In the case of `COc1c(OCCCN2CCOCC2)ccc2c3n(c(=NC(=O)c4cnc(N)nc4)nc12)CCN3`, the viability, T/C (compound 0.00316 µM) is reported as 85.3% and 98.5%, the viability, T/C (compound 0.01 µM) is reported as 91.9% and 72.6% and the viability, T/C (compound 0.0316 µM) is reported as 73.5% and 69.3%. For the same compound, the viability, T/C (compound 0.1 µM) was 43.4% and 40.3%, the viability, T/C (compound 0.316 µM) was 15.3% and 12.2% and the viability, T/C (compound 1 µM) was 4.52% and 3.3%. The IC50 (curve of compound) was 78.7 nM and 58.8 nM.
